Experimental data as given in US20230364007A1, “ADMINISTRATION OF A P[…]” (Reset Pharmaceuticals, Inc., priority 2022, published 2023).

Assays:
[1] = XRPD after micronisation; assay type: physicochemical; conditions: wet bead milling in decafluoropentane
Method: (§1) In order to provide a small and homogeneous particle size of psychedelic compound in the final suspensions, psilocybin and psilocin were micronised before use. Micronisation was performed by wet bead milling using decafluoropentane as the antisolvent. In a glass vial, 200 mg psychedelic compound and 2 g of 1 mm silica beads were weighed. 3 mL of the antisolvent was added for psilocybin and 2 mL for psilocin. The samples were vortexed for approximately 15 seconds then milled at 530 rpm for 60 minutes.
(§2) The micronised sample was then separated from the silica beads and transferred to a petri dish and left at room temperature to allow for evaporation of the solvent overnight (approximately 18 hours). The dried sample was then collected and characterised by PSD and XRPD.
X-ray powder diffraction (XRPD) analysis was carried out using a Bruker D2 Phaser powder diffractometer equipped with a LynxEye detector. The specimens were located at the centre of a silicon sample holder within a 5 mm pocket. The samples were continuously spun during data collection and scanned using a step size of 0.02° two theta (2θ) between 5° to 60° two theta, the detailed parameters are summarised in Table 10. The data was processed using Diffrac Plus EVA software (Version 3.1).

[2] = Solubility in excipients (preparative work)
[3] = reported; cited from earlier work
[4] = Particle size distribution (PSD) analysis by laser diffraction; assay type: physicochemical; conditions: primary pressure of 4 bar, lens R1, R3 or R5 per sample
Method: as §1, §2
Particle size analysis was carried out, in single analysis, by laser diffraction using a Sympatec Helos particle size analyser, equipped with a RODOS dry dispersion unit and ASPIROS feeder unit. The lens and primary pressures were varied for each compound tested.

[5] = Human simulations of psilocin exposure after SC administration; conditions: from absorption rate of rat SC model
Method: The model that was used is shown schematically in FIG. 6, mathematically the analytical solution is shown in equations (9)-(14).
Using the absorption rate from modelling the rat SC data and the human systemic psilocin PK parameters, human SC simulations were run over 1-12 mg doses and the simulated PK profiles can be seen in FIG. 7. […] These profiles can be seen in FIG. 8, with the summary statistics in Table 4.

[6] = One compartment SC PK model of psilocin fitted to digitised rat SC data
Method: Rat SC PK data was digitised for four dose levels (Higgins, G. A. et al., 2021. “Low Doses of Psilocybin and Ketamine Enhance Motivation and Attention in Poor Performing Rats: Evidence for an Antidepressant Property”. Frontiers in Pharmacology, Volume 12, p. 299). The PK was fitted using a one compartment SC model where volume was fixed to the same as human in L/kg. The model was fit to the lower 3 doses levels as the higher dose was determined to be out of the range of investigation.
A one compartment model was used with linear absorption and clearance shown schematically in […]. Mathematically, this model is a series of two linked ordinary differential equations (ODE's) given in equations (7)-(8).
Constant ka is the absorption rate constant (units 1/h), Cl is the clearance (units mL/h), Vc is the volume of distribution of the central compartment (units mL).
It is assumed that the generation of psilocin is instantaneous once psilocybin is absorbed. Due to a lack of rat IV PK data and human and rat plasma protein binding data, total rat volume of distribution (V) on ml/kg basis was fixed to the same as human total volume of distribution. A one compartment SC model gives a satisfactory fit to the absorption phase, seen in FIG. 5, this gives good confidence of the fitted ka value seen in Table 2. Bioavailability was again assumed to be 1.

[7] = Two-compartment IV bolus PK model fitted to published human psilocybin IV data; conditions: psilocin after 1 mg psilocybin IV
Method: All analysis was performed using the software R and RStudio, with models being defined using analytical and ODE solutions.
Derivation of system PK parameters for psilocybin/psilocin Systemic PK parameters were derived for published human bolus psilocybin IV data.
Human IV PK data for psilocin after psilocybin was administered was taken from Hasler et al. “Determination of psilocin and 4-hydroxyindole-3-acetic acid in plasma by HPLC-ECD and pharmacokinetic profiles of oral and intravenous psilocybin in man”. Pharm Acta Helv. 1997 June; 72(3):175-84. Model selection was performed by assessing visual fit to data and the respective model AIC's of a one compartment and two compartment IV PK model. These systemic human PK parameters were then used for human […] injection simulations by simulating the PK profiles over a range of doses and absorption rates.
It is assumed that the generation of psilocin is instantaneous and complete once psilocybin is absorbed.
An IV two compartment model best described the IV data from FIG. 2. A two-compartment model gave a good description of the raw data capturing the Cmax and terminal phase well, FIG. 3. The systemic PK parameters can be seen in Table 1 and there are low errors in the parameter estimates.

[8] = psilocin after SC psilocybin, rat, fit to 0.05, 0.1, 1 mg/kg

CN(C)CCc1c[nH]c2cccc(OP(=O)(O)O)c12 [psilocybin, [3-(2-dimethylaminoethyl)-1H-indol-4-yl] dihydrogen phosphate]
chemical degradation upon micronisation (XRPD) [1]: no significant chemical degradation upon micronisation | solubility in all the excipients tested ([2]; non-micronised, 20 excipients): poor | bioavailability [3]: approximately 50%

CN(C)CCc1c[nH]c2cccc(OP(=O)(O)O)c12 [Micronised psilocybin]
D10 [4]: 0.45 μm | D50 [4]: 1.20 μm

CN(C)CCc1c[nH]c2cccc(O)c12 [Micronised psilocin]
D10 [4]: 0.44 μm

CN(C)CCc1c[nH]c2cccc(O)c12 [psilocin, 4-hydroxy-N,N-dimethyltryptamine]
chemical degradation upon micronisation (XRPD) [1]: no significant chemical degradation upon micronisation | absorption half-life [5]: 17.9 min | dose normalised AUC ([6]; 10 mg/kg SC psilocybin dose in rats versus other doses (not shown)): considerably greater than the other doses | Cl (95% CI) [6, 8]: 2490 (2260, 2710) mL/h | ka, absorption rate constant (95% CI) [6, 8]: 2.32 (2.03, 2.61) /h | V ([6]; rat, fixed to human total volume of distribution on ml/kg basis): 1746 (Fixed) mL | Cl, clearance (95% CI) [7]: 3810 (3340, 4290) ml/min | V, volume of distribution of the central compartment (95% CI) [7]: 88600 (77300, 99900) ml | k12 (95% CI) [7]: 0.176 (0.144, 0.208) /min | k21 (95% CI) [7]: 0.0489 (0.0388, 0.0591) /min | solubility versus pH ([2]; initial solution trials): higher solubility at acidic pH | solubility in DMSO and NMP ([2]; non-micronised): good
